{"source": "paper PMC4492579", "about": "“Potent and Selective Triazole-Based Inhibitors of the Hypoxia-Inducible Factor Prolyl-Hydroxylases with Activity in the Murine Brain” (PLoS ONE, 2015)", "key": {"JARID1C (KDM5C)": {"molecular_target": "JARID1C (KDM5C) (Homo sapiens, UniProt P41229)", "sequence (P41229 whole entry)": "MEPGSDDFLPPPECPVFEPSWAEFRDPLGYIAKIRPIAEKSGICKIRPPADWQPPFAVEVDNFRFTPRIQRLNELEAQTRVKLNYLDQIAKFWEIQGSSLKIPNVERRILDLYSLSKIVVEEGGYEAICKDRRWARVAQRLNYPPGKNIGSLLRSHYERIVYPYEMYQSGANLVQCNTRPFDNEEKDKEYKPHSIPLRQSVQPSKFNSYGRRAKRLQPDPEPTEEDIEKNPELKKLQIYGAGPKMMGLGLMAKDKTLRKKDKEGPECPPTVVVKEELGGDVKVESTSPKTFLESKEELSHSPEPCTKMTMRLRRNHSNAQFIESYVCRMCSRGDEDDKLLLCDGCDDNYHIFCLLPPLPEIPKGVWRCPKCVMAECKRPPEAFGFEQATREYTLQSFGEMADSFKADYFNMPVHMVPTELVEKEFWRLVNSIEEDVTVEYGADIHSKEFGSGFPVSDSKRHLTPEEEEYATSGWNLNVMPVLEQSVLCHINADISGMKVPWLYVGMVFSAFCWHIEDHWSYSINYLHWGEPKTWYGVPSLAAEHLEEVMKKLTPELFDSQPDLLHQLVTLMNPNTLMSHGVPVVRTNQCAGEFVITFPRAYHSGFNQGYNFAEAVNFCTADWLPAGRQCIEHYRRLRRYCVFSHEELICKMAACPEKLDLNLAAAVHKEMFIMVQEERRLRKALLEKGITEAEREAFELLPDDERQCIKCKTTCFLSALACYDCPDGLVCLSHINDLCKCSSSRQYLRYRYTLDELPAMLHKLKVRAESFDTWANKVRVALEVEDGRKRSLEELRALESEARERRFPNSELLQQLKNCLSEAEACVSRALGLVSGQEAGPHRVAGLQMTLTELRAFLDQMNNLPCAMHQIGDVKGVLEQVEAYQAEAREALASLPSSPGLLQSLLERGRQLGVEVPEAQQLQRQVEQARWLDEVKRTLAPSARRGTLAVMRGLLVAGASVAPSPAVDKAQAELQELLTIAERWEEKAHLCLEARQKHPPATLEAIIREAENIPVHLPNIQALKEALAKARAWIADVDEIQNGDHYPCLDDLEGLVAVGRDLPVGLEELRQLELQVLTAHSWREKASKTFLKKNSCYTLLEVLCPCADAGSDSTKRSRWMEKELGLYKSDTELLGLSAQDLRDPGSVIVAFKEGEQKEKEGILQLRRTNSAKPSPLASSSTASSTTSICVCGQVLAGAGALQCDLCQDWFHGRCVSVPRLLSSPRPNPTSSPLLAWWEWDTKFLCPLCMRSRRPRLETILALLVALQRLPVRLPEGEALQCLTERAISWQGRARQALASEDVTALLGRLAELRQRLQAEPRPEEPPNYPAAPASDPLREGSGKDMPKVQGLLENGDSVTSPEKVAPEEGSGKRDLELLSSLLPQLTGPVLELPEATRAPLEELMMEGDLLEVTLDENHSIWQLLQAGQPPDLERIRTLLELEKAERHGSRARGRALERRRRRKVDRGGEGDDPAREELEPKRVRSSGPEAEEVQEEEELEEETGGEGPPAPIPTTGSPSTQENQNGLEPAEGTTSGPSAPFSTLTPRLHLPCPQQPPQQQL", "assay": "KDM AlphaScreen assay, JARID1C", "description": "(§1) Inhibition assays for PHD2 (AlphaScreen) [9], the KDMs (AlphaScreen) [17], BBOX [18] and FTO [19] were carried out as previously described. […] IC50 values were calculated using nonlinear regression with normalized dose-response fit using GraphPad Prism 5."}, "PHD2": {"molecular_target": "PHD2 (Homo sapiens, UniProt Q9GZT9)", "sequence (Q9GZT9 whole entry)": "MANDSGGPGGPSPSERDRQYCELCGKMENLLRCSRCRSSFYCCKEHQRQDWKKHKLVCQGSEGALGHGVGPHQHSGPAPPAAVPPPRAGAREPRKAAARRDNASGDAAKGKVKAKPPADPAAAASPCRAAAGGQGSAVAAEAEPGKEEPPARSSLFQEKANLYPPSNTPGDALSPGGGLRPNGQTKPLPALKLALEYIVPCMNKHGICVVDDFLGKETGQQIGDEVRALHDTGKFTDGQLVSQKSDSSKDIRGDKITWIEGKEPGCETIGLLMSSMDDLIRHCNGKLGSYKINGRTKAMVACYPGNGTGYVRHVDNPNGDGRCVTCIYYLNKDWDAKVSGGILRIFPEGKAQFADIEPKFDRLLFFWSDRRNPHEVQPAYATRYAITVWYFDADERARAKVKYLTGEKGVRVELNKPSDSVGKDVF", "assay": "PHD2 antibody-based (AlphaScreen) in vitro hydroxylation assay", "description": "(§2) Inhibition assays for PHD2 (AlphaScreen) [9], the KDMs (AlphaScreen) [17], BBOX [18] and FTO [19] were carried out as previously described. N-Terminally biotinylated 19-residue human HIF1α CODD peptide ([sequence]) used in the PHD2 inhibition assays was from GL Biochem (Shanghai). IC50 values were calculated using nonlinear regression with normalized dose-response fit using GraphPad Prism 5."}, "FTO": {"molecular_target": "FTO (Homo sapiens, UniProt Q9C0B1)", "sequence (Q9C0B1 whole entry)": "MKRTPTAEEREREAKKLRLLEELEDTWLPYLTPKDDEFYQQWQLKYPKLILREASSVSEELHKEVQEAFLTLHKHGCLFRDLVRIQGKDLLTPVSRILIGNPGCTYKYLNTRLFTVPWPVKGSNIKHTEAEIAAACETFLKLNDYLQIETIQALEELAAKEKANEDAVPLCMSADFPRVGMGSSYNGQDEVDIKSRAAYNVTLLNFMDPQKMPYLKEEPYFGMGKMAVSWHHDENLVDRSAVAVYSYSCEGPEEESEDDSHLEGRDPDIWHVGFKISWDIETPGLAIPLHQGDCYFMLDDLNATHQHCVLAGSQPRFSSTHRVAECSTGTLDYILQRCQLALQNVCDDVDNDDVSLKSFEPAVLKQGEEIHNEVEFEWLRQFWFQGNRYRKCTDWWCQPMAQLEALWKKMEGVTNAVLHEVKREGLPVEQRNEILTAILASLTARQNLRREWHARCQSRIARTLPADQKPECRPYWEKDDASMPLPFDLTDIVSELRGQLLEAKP", "assay": "FTO LC-MS assay", "description": "as §2"}, "JMJD2E (KDM4E)": {"molecular_target": "T1, JMJD2E (KDM4E) (Homo sapiens, UniProt B2RXH2)", "T1 sequence (B2RXH2 1-506)": "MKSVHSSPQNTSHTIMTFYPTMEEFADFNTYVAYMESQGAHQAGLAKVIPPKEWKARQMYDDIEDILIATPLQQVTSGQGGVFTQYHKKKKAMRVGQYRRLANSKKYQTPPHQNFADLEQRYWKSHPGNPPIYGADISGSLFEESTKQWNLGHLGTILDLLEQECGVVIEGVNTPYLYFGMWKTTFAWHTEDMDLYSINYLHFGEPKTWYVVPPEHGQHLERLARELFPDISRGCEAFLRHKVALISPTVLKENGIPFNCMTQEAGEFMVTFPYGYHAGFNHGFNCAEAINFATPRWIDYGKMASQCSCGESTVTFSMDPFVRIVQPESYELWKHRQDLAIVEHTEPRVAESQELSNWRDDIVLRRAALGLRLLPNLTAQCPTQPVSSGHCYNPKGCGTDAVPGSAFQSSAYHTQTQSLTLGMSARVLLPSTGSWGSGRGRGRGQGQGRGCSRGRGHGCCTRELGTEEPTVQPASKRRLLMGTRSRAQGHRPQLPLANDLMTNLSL", "assay": "KDM AlphaScreen assay, JMJD2E", "description": "as §1"}, "U2OS": {"test_system": "U2OS", "assay": "Quantitative HIF1α MSD immunoassay, U2OS", "assay_type": "cell-based", "conditions": "Homo sapiens, read-out: HIF1α EC50", "procedure": "Cells were seeded into 96-well cell culture plates (150 μl culture volume) at approximately 60–70% confluency at least 12 h prior to the compound treatment. Half of the culture medium (75 μl/well) were removed and 75 μl/well of medium containing the desired concentrations of compounds were added into cells for 5 h. The cell medium was then removed and the cells were washed once with phosphate buffered saline (PBS), followed by the addition of lysis buffer (20 mM Tris pH 7.4, 450 mM NaCl, 1 mM EDTA, 1 mM EGTA, 0.5% Triton X-100, 1x complete protease inhibitor cocktail and 100 μM DFO). Plates were then left at 4°C with shaking. […] Plates were washed thrice with Tris Wash Buffer, added with 150 μl/well 2X Read Buffer (R92TC, Meso Scale Discovery) before being read with an MSD Sector S600 plate reader (Meso Scale Discovery). Signals generated were normalized to “lysis buffer-only” controls.\nTo quantify the cellular efficiency of PHD inhibition, we developed an electrochemiluminescence-based assay for the quantification of HIF1α levels using the Meso Scale Discovery (MSD, http://www.mesoscale.com) technology (HIF1α MSD assay), which is based on the capture and detection of HIF1α protein using two specific HIF1α antibodies. […]"}, "RCC4 cells": {"test_system": "RCC4 cells", "assay": "Immunoblotting of HIF1α hydroxylation in VHL-defective RCC4 cells", "assay_type": "cell-based, human", "conditions": "immunoblot", "procedure": "Human cell lines (RCC4, HeLa, Hep3B, MCF-7 and U2OS) were cultured in DMEM (D6546-500ML; Sigma Aldrich) each supplemented with 10% fetal bovine serum (F7524-500ML; Sigma Aldrich), 2 mM L-glutamine (G7513- 100ML; Sigma Aldrich), 50 units/ml of penicillin, and 50 μg/ml of streptomycin (P0781-100ML; Sigma Aldrich). The RCC4 cell line was a gift from C.H.C.M. Buys (University of Groningen, [2]), the HeLa and Hep3B cell lines were from the European Collection of Cell Cultures (ECACC), the MCF-7 cell line was from the American Type Culture Collection (ATCC) and the U2OS cell line was a gift from S.Galey (ICRF Clare Hall Laboratories, United Kingdom). Cells were treated either with DMSO (control) or compounds (dissolved in DMSO) and added directly into the cell culture medium to the desired final concentration for 4–5 h as previously described.\nCells were extracted using urea/SDS buffer (6.7 M urea, 10 mM Tris-HCl pH 6.8, 10% glycerol and 1% SDS) and processed for immunoblotting as described. The following primary antibodies were used for immunoblotting: mouse monoclonal HIF1α antibody clone 54 (610958, BD Transduction Laboratories, 1:1000), rabbit polyclonal HIF1α hydroxy-Pro402 antibody (07–1585, Millipore, 1:1000), rabbit monoclonal HIF1α hydroxy-Pro564 antibody clone D43B5 (3434S, Cell Signaling, 1:500), mouse monoclonal HIF1α hydroxy-Asn803 antibody (a kind gift from Dr M. K. Lee, Republic of Korea, 1:4000), mouse monoclonal PHD2 antibody clone 76a (1:10), mouse monoclonal FIH antibody clone 162c (1:200) and β-actin/HRP (clone AC15, Abcam). HRP-conjugated swine polyclonal anti-rabbit IgG (P0399, Dako), and goat polyclonal anti-mouse IgG (P0447, Dako) were used as secondary antibodies.\nIn this cell line, the extent of the differential HIF1α prolyl hydroxylation at the N-terminal and C-terminal oxygen-dependent degradation domains (HyPro402 and HyPro564, respectively), as well as HIF1α asparaginyl hydroxylation at the C-terminal transactivation domain (HyAsn803) can be interrogated by immunoblotting using hydroxylation specific antibodies."}, "BBOX1": {"molecular_target": "T2, BBOX1 (Homo sapiens, UniProt O75936)", "T2 sequence (O75936 1-387)": "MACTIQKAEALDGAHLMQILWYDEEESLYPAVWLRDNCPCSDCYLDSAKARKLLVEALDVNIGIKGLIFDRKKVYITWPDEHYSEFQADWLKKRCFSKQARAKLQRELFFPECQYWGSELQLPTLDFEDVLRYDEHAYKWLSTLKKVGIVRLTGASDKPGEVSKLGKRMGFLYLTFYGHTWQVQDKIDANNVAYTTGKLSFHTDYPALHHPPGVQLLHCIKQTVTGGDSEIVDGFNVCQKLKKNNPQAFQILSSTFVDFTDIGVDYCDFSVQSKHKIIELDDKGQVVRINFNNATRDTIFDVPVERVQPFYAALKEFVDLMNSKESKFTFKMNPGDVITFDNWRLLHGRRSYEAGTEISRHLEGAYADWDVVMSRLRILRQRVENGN", "assay": "BBOX fluoride-release / detection based fluorescence assay", "description": "as §2"}}, "note": "Where a name gives a salt, the structure may show the parent alone. Read-outs that look alike come from different tables or passages of the source."}
{"smiles": "CC(C)(C)OC(=O)c1ccc(-n2[nH]cc(-n3ccnn3)c2=O)nc1", "note": "[IOX4, t-Butyl 6-(5-oxo-4-(1H-1,2,3-triazol-1-yl)-2,5-dihydro-1H-pyrazol-1-yl)nicotinate]", "values": [{"measurement": "IC50", "setting": "JARID1C (KDM5C)", "value": "> 100", "unit": "µM"}, {"measurement": "IC50", "setting": "PHD2", "value": 0.0016, "unit": "µM"}, {"measurement": "IC50", "setting": "FTO", "value": 49, "unit": "µM"}, {"measurement": "IC50", "setting": "JMJD2E (KDM4E)", "value": "> 20", "unit": "µM"}, {"measurement": "EC50", "setting": "U2OS; 5 h", "value": 5.6, "unit": "µM"}, {"measurement": "HIF1α prolyl-hydroxylation (HyPro402, HyPro564)", "setting": "RCC4 cells", "value": "block prolyl-hydroxylation of HIF1α at both NODD (HyPro402) and CODD (HyPro564)"}, {"measurement": "HIF1α asparaginyl-hydroxylation (HyAsn803)", "setting": "RCC4 cells; 50 μM", "value": "some apparent inhibition"}, {"measurement": "IC50", "setting": "BBOX1", "value": 73, "unit": "µM"}]}
{"smiles": "O=C(O)c1ccc(-n2[nH]cc(-n3ccnn3)c2=O)nc1", "note": "[compound 1, 6-(5-oxo-4-(1H-1,2,3-triazol-1-yl)-2,5-dihydro-1H-pyrazol-1-yl)pyridine-3-carbocylic acid hydrochloride]", "values": [{"measurement": "IC50", "setting": "JARID1C (KDM5C)", "value": "> 100", "unit": "µM"}, {"measurement": "IC50", "setting": "PHD2", "value": 0.0048, "unit": "µM"}, {"measurement": "IC50", "setting": "FTO", "value": 37, "unit": "µM"}, {"measurement": "IC50", "setting": "JMJD2E (KDM4E)", "value": "> 20", "unit": "µM"}, {"measurement": "HIF1α prolyl-hydroxylation (HyPro402, HyPro564)", "setting": "RCC4 cells", "value": "block prolyl-hydroxylation of HIF1α at both NODD (HyPro402) and CODD (HyPro564)"}, {"measurement": "IC50", "setting": "BBOX1", "value": "> 50", "unit": "µM"}]}
{"smiles": "O=C(O)CNC(=O)c1c(O)c2ccccc2n(Cc2ccccc2)c1=O", "note": "[IOX2]", "values": [{"measurement": "selectivity for PHD2 over all other tested enzymes", "setting": "PHD2; from IC50 values of the 2OG oxygenase panel (Table 1)", "value": "approximately 400 fold"}, {"measurement": "IC50", "setting": "FTO", "value": 11, "unit": "µM"}, {"measurement": "EC50", "setting": "U2OS; 5 h treatment, MSD assay", "value": 49.5, "unit": "µM"}, {"measurement": "IC50", "setting": "BBOX1", "value": 9.5, "unit": "µM"}]}
